Patent US8426203B2, “Culture medium containing gamma-aminobutyric acid, pipecolic acid or lithium for the maintenance of stem cells in an undifferentiated state” (Wisconsin Alumni Research Foundation, priority 2004, dated 2013)

Experiments:
[1] = test system: human pluripotent stem cells; assay: Omission of medium components, Oct-4 expression after seven days; type: cell-based; conditions: for effect of omitting constituent on percentage of undifferentiated cells: Oct-4 expression
Method: While a medium with all of the above constituents is sufficient and is preferred, not all of the components are necessary for the successful culture of human pluripotent stem cells. Depending on the amount of differentiated cells one is willing to tolerate, some of the components of the medium can be omitted, particularly if the medium is only used for a few passages. To further explore which constituents might be omitted, human pluripotent stem cells were cultured on variants of the above medium with differing components omitted. Two hundred thousand cells were plated and grown for seven days on each experimental medium, two wells per treatment. The cells were then assayed for expression of the transcription factor Oct-4, a recognized marker of undifferentiated cells.
The data from that experiment are presented graphically in FIG. 7, where the numbers of Oct-4 expressing cells in each experimental medium are presented as a fraction of that from the preferred medium TeSR1. […] The difference between the percentage of undifferentiated cells and the omitted constituent is quantitative. Regardless of the omitted constituent, the medium does work, at least to some degree for limited cell passages, without each of the omitted components.

human ES cells = assay: TeSR1 minus individual components, growth curve and FACS over three passages; type: cell-based
Method: FIG. 4 is a graphical representation of data showing that the medium described here results in robust growth of pluripotent stem cells in culture. Specifically, what is shown is growth curve analysis for human ES cells cultured in complete TeSR1 (positive control), and TeSR1 minus the following individual components: TGFβ, pipecolic acid (PA), GABA, LiCl and bFGF, and TeSR1 minus all five growth factors (TeSR1—ALL or negative control); 3×10^5 cells were plated at day 0 of each passage.
Triplicate wells of resulting cells were analyzed on day 6 of passage 3 by FACS for human ES cell markers. All results are presented for the H1 cell line; similar results were obtained for cell lines H7, H9 and H14.
Inventors used human ES cell lines H1, H7, H9 and H14 (Thomson, J. A. et al. Science 282, 1145-1147 (1998)) in a program of human ES cell media optimization that included modifications to the physiochemical environment, growth factor supplements and matrix components. To accomplish this, human ES cell lines H1, H7, H9, and H14 were cultured on Matrigel (Becton Dickinson) in fibroblast-conditioned medium as previously described (Xu, C. et al. Nature Biotechnology 19, 971-974 (2001)). Cells were transitioned into test media by direct passage from conditioned medium. Cultures of human ES cells were routinely passaged in clumps at approximately weekly intervals onto Matrigel or human matrix-coated plates by exposure to dispase (2.0 or 0.5 mg/ml respectively: Invitrogen). Following 7 minutes of dispase exposure, cells were rinsed 3 (three) times on the plate with medium, followed by gentle scraping to collect. Colonies were further broken up by gentle pipetting and then plated. The human matrix-coated plates were composed of 10 μg/cm^2 human collagen IV (Sigma or Becton Dickinson), 0.2 μg/cm^2 human vitronectin (Sigma), 5 μg/cm^2 human fibronectin (Sigma or Becton Dickinson) and 5 μg/cm^2 human laminin (Sigma). During the course of these studies we successfully used 4 lots of fibronectin, 2 lots of collagen, 3 lots of laminin, and 3 lots of vitronectin. For growth curve proliferation studies, 3-5×10^5 cells were plated on Day 0 of each passage into conditioned medium, TeSR1 or TeSR1 minus the following components: TGFβ, PA, GABA, LiCl and bFGF. Cells were cultured for three passages. Cells were harvested on Day 2-3 and Day 6-7 and counted using a Trypan Blue exclusion assay. At the end of passage three, cells were individualized by treatment with trypsin/EDTA and were analyzed by FACS for human ES cell markers Oct-4, SSEA-4, Tra 1-60 and Tra 1-81 as subsequently described.

ES03-DL1-K hES cells = assay: Cloning efficiency at different BME concentrations in TeSR1; type: cell-based, human
Method: FIG. 15 illustrates the growth of hES cells grown in mTeSR1 with five different concentrations of beta mercaptoethanol (βME). ES03-DL1-K were grown for one to five passages, visualized (a), counted to determine proliferation and cloning efficiency (b), and stained using […] for Oct-4 and SSEA-4 to identify differentiation status of the cells (c). The treatment concentrations consisted of 0, 1.75, 3.5, 7, and 14 μL βME/500 mL of total TeSR1 media. Results shown are the mean from growth in 3 wells/treatment. This experiment was repeated multiple times both with ES03-DL1-K and H9-WA09 cells with similar results.
Specifically, to optimize the physiochemical environment, human ES cells with an EGFP reporter gene and a neomycin resistance cassette under control of the endogenous Oct-4 gene were utilized for the physiochemical optimization assays. […] At the end of the growth period, cells from independent wells were individualized by treatment with trypsin/EDTA, counted and subjected to FACS analysis as subsequently described. To determine cloning efficiency of the cells, resulting colonies were stained with BCIP/NTB alkaline phosphatase substrate kit IV (Vector Laboratories) and counted. Percentages were determined by dividing colony number obtained by the initial number of cells plated. […]

Row | Compound | effect of omitting constituent on percentage of undifferentiated cells [1] | effect of removal of the factor from TeSR1 on culture performance (human ES cells) | cloning efficiency of the cells (ES03-DL1-K hES cells; 0 and 1.75 μL BME/500 mL of total media, modified TeSR1) | increase in cloning efficiency (ES03-DL1-K hES cells; BME omitted or less than about 0.1 mM in TeSR1 vs same medium with higher than about 0.1 mM BME) | effect of removal from TeSR1 on total cell number and percentage of cells expressing ES cell markers (human ES cells) | necessity of component (Oct-4 expressing cells as fraction of TeSR1) ([1]; short-term culture, high levels of FGF)
1 | NCCCC(=O)O [GABA, gamma-aminobutyric acid] | increased percentages of undifferentiated cells | significantly decreased some parameter of culture performance |  |  |  | 
2 | OCCS [BME, β-mercaptoethanol] |  |  | large increases in cloning efficiency | at least 10% |  | 
3 | bFGF: fibroblast growth factor, also referred to as FGF2 | increased percentages of undifferentiated cells | significantly decreased some parameter of culture performance |  |  | consistently decreased | 
4 | [Cl-].[Li+] [LiCl, lithium chloride] | increased percentages of undifferentiated cells | significantly decreased some parameter of culture performance |  |  |  | 
5 | O=C(O)C1CCCCN1 (stereo not shown) [PA, pipecolic acid] | increased percentages of undifferentiated cells | significantly decreased some parameter of culture performance |  |  |  | 
6 | TGFβ: transforming growth factor beta |  | significantly decreased some parameter of culture performance |  |  |  | least necessary component
